Measured values: patent US20090264483A1, “METHODS OF USING PPAR-gamma AGONISTS AND CASPASE-DEPENDENT CHEMOTHERAPEUTIC AGENTS FOR THE TREATMENT OF CANCER” (CEDARS-SINAI MEDICAL CENTER, priority 2006, published 2009)
d = 2'-deoxy (DNA); r = 2'-OH (RNA)

Key:
Assay type in all cases: cell-based, human
[1] = system: LN-18, U-87MG, and MG-328 glioma cells; experiment: Cell viability assay (Ann/PI staining, FACS) with TRAIL
Method: (§1) Treatment of cells with TG, GW, PTPI, and/or SHPI for 24 h was followed by treatment with rTRAIL, VP16 or Taxol, and all the cells, including cells that had not adhered, were harvested after 24 h (48 h). An annexin V-fluorescein isothiocyanate apoptosis detection kit I (Pharmingen) was used for viability assay of the cells. Cells were stained with annexin V-fluorescein isothiocyanate (Ann) and propidium iodide (PI) according to the manufacturer's protocol and were analyzed by FACS (Pharmingen). Cells that stained negative for both Ann and PI were defined as viable cells for viability assay.

caspase-3, -8, and -9 [2] = experiment: Caspase activity assay in TRAIL-treated glioma cells
Method: (§2) Activity of caspase-3, -8, and -9 was measured using caspase-3/CPP32, FLICE/caspase-8, and APOPCYTO/caspase-9 […] assay kits, respectively, from Medical and Biological Laboratories Co. (Nagoya, Japan). Briefly, the treatment of cells with TG, GW, and/or PTPI for 24 h was followed by treatment with rTRAIL, VP 16 or Taxol. After 2 h (24 h) of treatment, all the cells were harvested, and samples were extracted with Cell Lysis Buffer. Concurrently, a sample for a negative control was extracted from the cells without apoptosis induction. A standard curve using the absorbance of p-nitroanilide standards was constructed, and then the specific activities on each sample were calculated according to the manufacturer's protocol.

[3] = system: STAT3, pY705-STAT3, FLIP, Bcl-2, Bax, pS392-p53, PTP1B, SHP-1; experiment: Western blot of glioma cell protein extracts
Description: Rabbit polyclonal Abs against DR4, DR5, and PPARγ were obtained from Cayman Chemical. Mouse monoclonal Abs against STAT3, phosphotyrosine 705 STAT3 (pY705-STAT3), which is an activated form of STAT3, Bax, and Bcl-2 were obtained from Pharmingen. Rabbit polyclonal Abs against p53 and phosphor-Ser-392-p53 (pS392-p53) were obtained from Cell Signaling Technology (Beverly, Mass.). Mouse monoclonal Abs against PTP1B (PTPase1B; AE4-2J) and Src homology 2-containing PTP-1 (SHP1; 1SH01) and rabbit polyclonal Ab against FLIP were obtained from Calbiochem. Mouse monoclonal Ab of β-tubulin was obtained from Sigma. Horseradish peroxidase-linked Abs of sheep anti-mouse IgG and donkey anti-rabbit IgG were obtained from Amersham Biosciences.
Samples were extracted with buffer containing 1% Triton X-100, 150 mM NaCl, 50 mM Tris (pH 7.5), and 1 mM phenylmethylsulfonyl fluoride (Roche Applied Science) and were subjected to SDS-PAGE with 30 μg of general protein loading into each lane on a 10% polyacrylamide gel. Electrophoretic transfer to nitrocellulose membranes (Amersham Biosciences) was followed by immunoblotting. The signal was detected by using an ECL detection system (Amersham Biosciences).

U-87MG cells = experiment: Cell viability assay (Ann/PI staining, FACS) with VP16 or Taxol; conditions: for proliferation of cells in the control group (no TG or PTPI): 5-day cell cultures, U-87MG (not shown)
Method: as §1
(§3) Based on this hypothesis, a determination was sought whether TG enhances the cytotoxic activities of etoposide (VP16) and paclitaxel (Taxol), which are known to involve activation of caspase-2, -8, -9, and -10 during their apoptosis induction (Lin et al. (2004) J. Biol. Chem. 279, 40755-40761.; Perkins et al. (2000) Cancer Res. 60, 1645-1653.; Park et al. (2004) J. Biol. Chem. 279, 51057-51067.). To confirm this, treatment of U-87MG with TG and/or PTPI was followed by treatment with VP16 (0.01-10 μM) or Taxol (0.005-5 μM). The cells were then subjected to cell viability (FIGS. 7, A and B) and caspase activity assays (FIGS. 7, C and D).

caspase-3, -8, and -9 [4] = experiment: Caspase activity assay in U-87MG treated with VP16 or Taxol; conditions: PTPI 50 μM and TG 30 μM for 24 h, then VP16 10 μM or Taxol 5 μM
Method: as §2, §3

STAT3 mRNA = experiment: Real time quantitative RT-PCR; conditions: LN-18; STAT3-siRNA 50-600 pmol; 24 h after transfection; dose-dependent
Method: DNA amplification was performed using an […] […] ID NO: 3), STAT3 reverse, [NT] ID NO: 4); and β-actin forward, [NT] ID NO: 5), β-actin reverse, [NT] ID NO: 6).

LN-18 = experiment: Annexin V apoptosis detection (FACS) after TRAIL treatment; conditions: TRAIL 300 ng/ml
Method: as §1, with “Treatment of cells with TG, GW, PTPI, and/or SHPI for 24 h was followed by treatment with rTRAIL, VP16 or Taxol, and all the cells, including cells that had not adhered, were harvested after 24 h (48 h).” left out
To examine the mechanism that causes resistance to TRAIL, glioma cell lines were used that are partially resistant to TRAIL despite their expression of DR4 and/or DR5. Western blot was used to detect the expression levels of DR4 and DR5 in LN-18, U-87MG, and MG-328 (FIG. 1A). The cytotoxic activity of TRAIL (18.75-300 ng/ml) was examined in each glioma (FIGS. 1, B and C). […] These findings indicate that these gliomas can acquire a resistance to TRAIL despite their expression of functionally intact DR4/5.

[5] = SHPI 200 μM and TG 30 μM, then rTRAIL (not shown)
[6] = STAT3-siRNA-transfected glioma cells

With `O=C(Nc1ccccc1)c1cc([N+](=O)[O-])ccc1Cl` [GW, GW9662] the “effect on the activity of TG in TRAIL-treated glioma cells (cell viability)” value ([1]; GW 20 μM and TG 30 μM for 24 h, then rTRAIL 100 ng/ml for 24 h) was “not blocked”, the “effect on the specific activities of caspases in TG/TRAIL-treated cells” value (caspase-3, -8, and -9 [2]; GW 20 μM and TG 30 μM for 24 h, then rTRAIL 100 ng/ml for 2 h) was “did not reduce” and the “pY705-STAT3 expression in cells treated with TG and GW” value ([3]; GW 20 μM and TG 30 μM for 24 h) was “down-regulation of pY705-STAT3 was observed”. For the same molecule, the “effect on the up-regulation of pS392-p53 induced by TG” value ([3]; GW 20 μM and TG 30 μM for 24 h, LN-18 and U-87MG) was “abrogated” and the “effect on the up-regulation of Bax found in TG-treated cells” value ([3]; GW 20 μM and TG 30 μM for 24 h, U-87MG) was “inhibited”.

`O=C(CBr)c1ccc(O)cc1` [PTPI, α-bromo-4-hydroxyacetophenone] was tested, and the “effect on the effect of TG on TRAIL (cell viability)” value ([1]; PTPI 50 μM and TG 30 μM, then rTRAIL 100 ng/ml (not shown)) was “abrogated”, the “inhibition of the cytotoxic activity in TG-treated cells with VP16 or Taxol” value (U-87MG cells; U-87MG, PTPI 50 μM and TG 30 μM for 24 h, then VP16 or Taxol) was “limited effect” and the “effect on the effect of TG on TRAIL (caspase activity)” value (caspase-3, -8, and -9 [2]; PTPI 50 μM and TG 30 μM, then rTRAIL 100 ng/ml for 2 h) was “abrogated”. For the same molecule, the “effect on the effect of TG on the activity of caspase-8 and -9” value (caspase-3, -8, and -9 [4]) was “completely abrogated”, the “inhibition of caspase-3 activity in TG-treated cells with VP16 or Taxol” value (caspase-3, -8, and -9 [4]) was “limited effect” and the “effect on the inhibitory effect of TG on pY705-STAT3” value ([3]; PTPI 50 μM and TG 30 μM for 24 h) was “abrogated”. The “effect on the upregulation of pS392-p53 caused by TG” value ([3]; PTPI 50 μM and TG 30 μM for 24 h, LN-18 and U-87MG) was “did not inhibit”.

With `O=C(O)COc1ccc(C(=O)CBr)cc1` [SHPI, α-bromo-4-carboxymethoxyacetophenone] the “effect on the effect of TG on TRAIL (cell viability)” value [1, 5] was “did not abrogate”, the “effect on the effect of TG on TRAIL (caspase activity)” value (caspase-3, -8, and -9 [2]; [5]) was “did not abrogate” and the “effect on the downregulation of pY705-STAT3 induced by TG” value ([3]; SHPI 200 μM and TG 30 μM for 24 h) was “did not inhibit”.

`Cc1c(C)c2c(c(C)c1O)CCC(C)(COc1ccc(CC3SC(=O)NC3=O)cc1)O2` (centres unmarked) [TG, troglitazone] was tested, and the “effect on the cytotoxic activity of TRAIL” value ([1]; TG 30 μM for 24 h, then rTRAIL 100 ng/ml for 24 h, LN-18, U-87MG and MG-328) was “significantly enhance”, the “effect on the cytotoxic activity of Taxol (cell viability)” value (U-87MG cells; U-87MG, TG 30 μM for 24 h, then Taxol 0.005-5 μM for 48 h) was “positive activities” and the “effect on the cytotoxic activity of VP16 (cell viability)” value (U-87MG cells; U-87MG, TG 30 μM for 24 h, then VP16 0.01-10 μM for 48 h) was “positive activities”. The “time at which down-regulation of pY705-STAT3 was noticeable” value ([3]; TG 30 μM) was 8 h, the STAT3 expression levels ([3]; TG 30 μM, LN-18, U-87MG, MG-328) was “no effect” and the “time at which 42 kDa PTP1B expression reached maximum levels” value ([3]; TG 30 μM, all gliomas) was 16 to 32 h. For the same molecule, the “time of start of up-regulation of the activated form of PTP1B (42 kDa) after treatment” value ([3]; TG 30 μM, all gliomas) was no more than 4 h.

In the case of `CC(=O)O[C@H]1C(=O)[C@@]2(C)[C@H]([C@H](OC(=O)c3ccccc3)[C@]3(O)C[C@H](OC(=O)[C@H](O)[C@@H](NC(=O)c4ccccc4)c4ccccc4)C(C)=C1C3(C)C)[C@]1(OC(C)=O)CO[C@@H]1C[C@@H]2O` [Taxol, paclitaxel], the “proliferation of cells in the control group (no TG or PTPI)” value (U-87MG cells; Taxol 5 μM) is reported as “maintained an ability to proliferate”.

`COc1cc([C@@H]2c3cc4c(cc3[C@@H](O[C@@H]3O[C@@H]5CO[C@@H](C)O[C@H]5[C@H](O)[C@H]3O)[C@H]3COC(=O)[C@H]23)OCO4)cc(OC)c1O` [VP16, Etoposide] was tested, and the “proliferation of cells in the control group (no TG or PTPI)” value (U-87MG cells; VP16 10 μM) was “maintained an ability to proliferate”.

For “STAT3-siRNA: double-stranded siRNA oligonucleotide against STAT3 (SEQ ID NO: 1 and 2), Dharmacon (chain 1 AACAUCUGCCUAGAUCGGCUATT; chain 2 UAGCGGAUCUAGGCAGAUG; chain 1: sugars from the 5' end r21 d2, backbone not given here; chain 2: RNA, 3' dTdT, backbone not given here)”, the “effect on the cytotoxic effect of TRAIL” value ([1]; STAT3-siRNA 600 pmol, then TRAIL 100 ng/ml for 24 h) was “significantly enhanced”, the “apoptotic death of glioma cells, agent alone” value ([1]; STAT3-siRNA 600 pmol, without rTRAIL) was “did not induce their apoptotic death” and the “specific activities of caspases-3, -8, and -9” value (caspase-3, -8, and -9 [2]; STAT3-siRNA 600 pmol, then TRAIL 100 ng/ml for 2 h) was “significantly increased”. For the same molecule, the “inhibitory effect of PTPI on TG in transfected glioma cells (caspase activity)” value (caspase-3, -8, and -9 [2]; STAT3-siRNA 600 pmol, cells treated with TG, PTPI and TRAIL) was “negated”, the STAT3 protein expression ([3]; LN-18, STAT3-siRNA 50-600 pmol, 24 h after transfection, dose-dependent) was “decreased” and the Bax expression levels [3, 6] was “not altered”. For the same molecule, the “FLIP and Bcl-2 expression levels” value [3, 6] was “decreased”, the pY705-STAT3 expression [3, 6] was “down-regulated” and the “STAT3 mRNA expression” value (STAT3 mRNA) was “decreased”.

B1: TRAIL: Recombinant human tumor necrosis factor-related apoptosis-inducing ligand, obtained from Pepro-Tech (protein, UniProt P50591 1-281, looked up)
Tumor necrosis factor ligand …: MAMMEVQGGPSLGQTCVLIVIFTVLLQSLCVAVTYVYFTNELKQMQDKYSKSGIACFLKEDDSYWDPNDEESMNSPCWQVKWQLRQLVRKMILRTSEETISTVQEKQQNISPLVRERGPQRVAAHITGTRGRSNTLSSPNSKNEKALGRKINSWESSRSGHSFLSNLHLRNGELVIHEKGFYYIYSQTYFRFQEEIKENTKNDKQMVQYIYKYTSYPDPILLMKSARNSCWSKDAEYGLYSIYQGGIFELKENDRIFVSVTNEHLIDMDHEASFFGAFLVG
B1 was tested, and the “percentage of Ann(+) PI(−) cells (early stage of apoptosis)” value (LN-18; after 2 h of treatment) was 33.7%, the “percentage of Ann(+) PI(−) cells (early stage of apoptosis)” value (LN-18; after 24 h of treatment) was 60.1% and the cell death ([1]; 300 ng/ml TRAIL, after 24 h of treatment, LN-18, U-87MG, MG-328) was 40-60%. For the same molecule, the “cells killed by TRAIL in the STAT3-siRNA-transfected group” value ([1]; TRAIL 100 ng/ml, 72-h cell culture, each glioma (not shown)) was “more than 95%” and the “proliferative ability of the viable cells” value ([1]; after 72 h of cell culture with 300 ng/ml TRAIL (not shown)) was “maintained a proliferative ability”.
